Structures can show the parent of a compound that is named as a salt. Where two headings read alike, the source gives them in different places.
What was measured:
HepG2 cells [1] = conditions: cited from earlier work
rat primary hepatocytes [2] = tested on: rat primary hepatocytes
rat primary hepatocytes [3] = test: MMP assay in rat primary hepatocytes; conditions: for IC50: Rattus norvegicus, Hepatocyte, read-out: MMP assays IC50 (µM) Rat Hepatocytes
HepG2 cells [4] = test: cells; conditions: Homo sapiens; for IC50: HepG2, read-out: MMP assays IC50 (µM) HepG2; for Emax: HepG2, read-out: MMP assays efficacy (%) HepG2
[5] = read-out: MMP assays IC50 (µM) qHTS-HepG2
[6] = read-out: MMP assays IC50 (µM), qHTS-HepG2

Row | SMILES | MMP assays efficacy (%) qHTS-HepG2 (HepG2 cells [1]) | IC50 (HepG2 cells [1]; [5]) | MMP assays efficacy (%) Rat Hepatocytes (rat primary hepatocytes [2]) | MMP assays IC50 (µM) Rat Hepatocytes (rat primary hepatocytes [3]) | IC50 (HepG2 cells [4]) | Emax (HepG2 cells [4]) | IC50 (rat primary hepatocytes [3]) | IC50 (HepG2 cells [1]; [6])
1 | Nc1cccc2c(N)cccc12 [1,5-Naphthalenediamine] | -76±19% | 17 ± 19.6 µM | inactive | inactive | 3.16 µM | 101% |  | 
2 | O=[N+]([O-])c1ccc2ccc3cccc4ccc1c2c34 [Compound 1-Nitropyrene] | -99±6% | 2.01 ± 2.06 µM | -60±24% |  | 6.31 µM | 68% | 16.9 ± 4.77 µM | 
3 | Clc1ccc(C(c2ccc(Cl)cc2)C(Cl)Cl)cc1 [p,p'-DDD] | -103±18% |  | -37±12% |  | 39.8 µM | 108% | 42.2 ± 19.8 µM | 15.2 ± 8.82 µM
4 | O=S1(=O)OCC2C(CO1)C1(Cl)C(Cl)=C(Cl)C2(Cl)C1(Cl)Cl (centres unmarked) [Endosulfan sulfate] | -123±10% | 16 ± 2.05 µM | -80+6% |  | 17.8 µM | 103% | 25.8 ± 10.1 µM | 
5 | IC(I)=C(I)I [Tetraiodoethene] | -105±22% |  | -115±28% |  | 6.31 µM | 103% | 22.6 ± 14.4 µM | 5.45 ± 1.27 µM
6 | CCC(=O)c1c(O)cc(O)cc1O [Flopropione] | -111±23% |  | inactive | inactive | 17.3 µM | 103% |  | 18.8 ± 6.83 µM
7 | CC(C)OC(=O)C(O)(c1ccc(Cl)cc1)c1ccc(Cl)cc1 [Chloropropylate] | -105±14% | 26.3 ± 3.64 µM | -66±32% |  | 44.7 µM | 102% | 43.8 ± 10.9 µM | 
8 | O=S(=O)(c1ccc(Cl)cc1)c1ccc(Cl)cc1 [4,4'-Dichlorodiphenyl sulfone] | -99±22% | 21.3 ± 6.06 µM | -72±26% |  | 35.5 µM | 96% | 29.9 ± 2.43 µM | 
9 | CCC(C)c1ccc(O)cc1 (centres unmarked) [4-(Butan-2-yl)phenol] | -101±7% | 32 ± 3.64 µM | inactive | inactive | 35.5 µM | 77% |  | 
10 | Oc1c(Cl)c(Cl)c(Cl)c(Cl)c1Cl [Pentachlorophenol] | -97±20% |  | -119±31% |  | 8.9 µM | 99% | 4.17 ± 0.75 µM | 3.09 ± 0.6 µM
11 | Oc1ccccc1-c1ccccc1 [Compound 2-Phenylphenol] | -97±7% | 17.9 ± 1.41 µM | -75±20% |  | 28.2 µM | 108% | 53.2 ± 4.32 µM | 
12 | ClC1=C(Cl)C2(Cl)C3C4CC(C5OC45)C3C1(Cl)C2(Cl)Cl (centres unmarked) [Endrin] | -75±20% | 23.5 ± 7.96 µM | inactive | inactive | 21.8 µM | 55% |  | 
13 | CO[C@H]1[C@@H](O)C[C@H](O[C@H]2[C@@H](O)C[C@H](O[C@H]3[C@@H](O)C[C@H](O[C@H]4CC[C@@]5(C)[C@H](CC[C@@H]6[C@@H]5C[C@@H](O)[C@]5(C)[C@@H](C7=CC(=O)OC7)CC[C@]65O)C4)O[C@@H]3C)O[C@@H]2C)O[C@@H]1C [Methyldigoxin] | -71±5% |  | inactive | inactive | 0.24 µM | 99% |  | 0.73 ± 0.09 µM
14 | ClC1=C(Cl)C2(Cl)C3C(Cl)C=CC3C1(Cl)C2(Cl)Cl (centres unmarked) [Heptachlor] |  |  | inactive | inactive | 31.6 µM | 87% |  | 39.4 ± 17.9 µM
15 | Nc1ccc(N)cc1 [1,4-Benzenediamine] | -85±6% | 3.28 ± 0.42 µM | inactive | inactive | 2.18 µM | 71% |  | 
16 | CCC[C@@]1(CCc2ccccc2)CC(O)=C([C@H](CC)c2cccc(NS(=O)(=O)c3ccc(C(F)(F)F)cn3)c2)C(=O)O1 [Tipranavir] | -93±5% |  | -96±11% |  | 17.3 µM | 100% | 29.2 ± 2.37 µM | 26.6 ± 4.94 µM
17 | COc1cccc2c1C(=O)c1c(O)c3c(c(O)c1C2=O)C[C@@](O)(C(=O)CO)C[C@@H]3O[C@H]1C[C@H](N)[C@H](O[C@@H]2CCCCO2)[C@H](C)O1 [Pirarubicin] | -68±19% |  | -39±8% |  | 0.69 µM | 53% | 0.03 µM | 0.6 ± 0.46 µM
